Experimental data as given in US20210330611A1, “THERAPY FOR NEUROLOGICAL DISEASES/DISORDERS” (priority 2020, published 2021).
Structures can show the parent of a compound that is named as a salt. Where two headings read alike, the source gives them in different places.

Legend:
[1] = test system: fibrin-induced microglia activation; test: Image-based assay of fibrin-induced microglia activation (HTS and dose response); format: cell-based, rat; conditions: for inhibition at 10 µM: read-out: Fibrin % inhibition
primary rat microglia [2] = test system: primary rat microglia;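 as to Fibrin % cell toxicity: share of dead cells sized under 150 µm2 at 10 µM in fibrin-stimulated microglia HTS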
[3] = test system: LPS-induced microglia activation; test: Image-based assay of LPS-induced microglia activation (HTS and dose response); format: cell-based, rat
primary rat microglia [4] = test system: primary rat microglia; remark: listed apart in the source;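 as to Fibrin % cell toxicity: share of dead cells sized under 150 µm2 at 10 µM in fibrin-stimulated microglia HTS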
[5] = test system: fibrin- and LPS-induced microglia activation; test: cells; format: cell-based, rat
[6] = read-out: Fibrin IC50 (uM) (Suppl. Table 7)
[7] = read-out: LPS IC50 (uM) (Suppl. Table 7)
[8] = Rattus norvegicus, Microglia, primary microglia HTS, fibrin stimulation, cell size >800 μm2 as marker of activation
[9] = Rattus norvegicus, Microglia, 48 h; read-out: LPS % inhibition
[10] = classification by fibrin and LPS inhibition in HTS
[11] = Rattus norvegicus, Microglia, primary microglia HTS, fibrin stimulation, activation = cell size >800 μm2
[12] = Rattus norvegicus, Microglia, 48 h, primary microglia HTS, LPS stimulation, activation = cell size >800 μm2; read-out: LPS % inhibition
[13] = quadrant by fibrin and LPS inhibition in HTS of 1907 compounds
[14] = Rattus norvegicus, Microglia, primary microglia HTS, fibrin stimulation, increased cell size (>800 μm^2) as marker of activation
[15] = Rattus norvegicus, Microglia, 48 h, primary microglia HTS, LPS stimulation; increased cell size (>800 μm^2) as marker of activation; read-out: LPS % inhibition
[16] = Rattus norvegicus, Microglia, read-out: LPS % inhibition
[17] = Rattus norvegicus, Microglia, primary microglia HTS, fibrin stimulation, compounds at 10 μM
[18] = Rattus norvegicus, Microglia, primary microglia HTS, LPS stimulation, compounds at 10 μM; read-out: LPS % inhibition
[19] = classification by fibrin and LPS inhibition, HTS at 10 μM
[20] = Rattus norvegicus, Microglia, 48 h, read-out: LPS % inhibition

C[C@@H]1C[C@H]2[C@@H]3C[C@H](F)C4=CC(=O)C=C[C@]4(C)[C@@]3(F)[C@@H](O)C[C@]2(C)[C@@]1(O)C(=O)COC(=O)C(C)(C)C [Flumethazone pivalate, reference compound]
Fibrin % inhibition [1]: 101%
Fibrin Selectivity [1]: 4
Fibrin Selectivity (LOG10) [1]: 0.58
fib specificity [1]: 1.0
fib_HS [1]: −0.23
IC50 ([1]; read-out: Fibrin IC50): < 0.001 µM
IC50 [1, 6]: < 0.001 µM
IC50 (primary rat microglia [2]): > 20000 nM
LPS % cell toxicity (primary rat microglia [2]): 3%
LPS % inhibition [3]: 94%
LPS specificity [3]: 1.0
LPS_HS [3]: 0.00
IC50 ([3]; read-out: LPS IC50): 0.004 µM
IC50 [3, 7]: 0.004 µM
Fibrin % cell toxicity (primary rat microglia [4]): 1%
IC50 (primary rat microglia [4]): > 20000 nM
Activity [5]: fib/LPS
Cherry-picked Hit (Suppl. Table 7) [5]: HIT (key: HIT: Hits were defined as molecules that exhibited greater than 50% inhibition of either fibrin or LPS activation)
Hit [5]: HIT (key: HIT: Hits were defined as molecules that exhibited greater than 50% inhibition of either fibrin or LPS activation)
Quadrant (FIG. 5b) [5]: Q2

O=C([O-])[C@H](O)[C@@H](O)[C@H](O)[C@H](O)CO.[Na+] [Sodium Gluconate]
inhibition at 10 µM [1, 8]: 1%
LPS % cell toxicity (primary rat microglia [2]; rat): 0%
inhibition at 10 µM [3, 9]: 11%
Fibrin % cell toxicity (primary rat microglia [4]; rat): 1%
Quadrant (FIG. 5b) [5, 10]: Q4

CCOC(=O)c1ncn2c1CN(C)C(=O)c1cc(F)ccc1-2 [Flumazenil]
inhibition at 10 µM [1, 11]: 5%
LPS % cell toxicity (primary rat microglia [2]; rat): 1%
inhibition at 10 µM [3, 12]: 14%
Fibrin % cell toxicity (primary rat microglia [4]; rat): 1%
Quadrant (FIG. 5b) [5, 13]: Q4

Cc1cccc(Nc2ccccc2C(=O)O)c1C [Mefenamic Acid]
inhibition at 10 µM [1, 14]: -6%
LPS % cell toxicity (primary rat microglia [2]; rat): 1%
inhibition at 10 µM [3, 15]: 3%
Fibrin % cell toxicity (primary rat microglia [4]; rat): 1%
Quadrant (FIG. 5b) [5, 13]: Q4

O=C(O)c1ccccc1 [Benzoic Acid]
inhibition at 10 µM ([1]; Rattus norvegicus, Microglia): -6%
LPS % cell toxicity (primary rat microglia [2]; rat): 0%
inhibition at 10 µM [3, 16]: 6%
Fibrin % cell toxicity (primary rat microglia [4]; rat): 0%
Quadrant (FIG. 5b) [5]: Q4

Oc1cccc(O)c1 [Resorcinol]
inhibition at 10 µM [1, 8]: -4%
LPS % cell toxicity (primary rat microglia [2]; rat): 0%
inhibition at 10 µM ([3]; Rattus norvegicus, Microglia, 48 h, primary microglia HTS, LPS stimulation, cell size >800 μm2 as marker of activation; read-out: LPS % inhibition): 8%
Fibrin % cell toxicity (primary rat microglia [4]; rat): 0%
Quadrant (FIG. 5b) [5, 10]: Q4

COc1ccc(Cc2cnc(N)nc2N)cc1OC [Diaveridine]
inhibition at 10 µM [1, 17]: -8%
LPS % cell toxicity (primary rat microglia [2]; rat): 1%
inhibition at 10 µM [3, 18]: 13%
Fibrin % cell toxicity (primary rat microglia [4]; rat): 1%
Quadrant (FIG. 5b) [5, 19]: Q4

CC(COc1ccccc1)N(CCCl)Cc1ccccc1 (centres unmarked) [Phenoxybenzamine]
inhibition at 10 µM [1, 8]: 8%
LPS % cell toxicity (primary rat microglia [2]; rat): 0%
inhibition at 10 µM [3, 9]: -5%
Fibrin % cell toxicity (primary rat microglia [4]; rat): 1%
Quadrant (FIG. 5b) [5, 10]: Q4

Clc1ccc2nsnc2c1NC1=NCCN1 [Tizanidine]
inhibition at 10 µM ([1]; Rattus norvegicus, Microglia): 2%
LPS % cell toxicity (primary rat microglia [2]; rat): 1%
inhibition at 10 µM [3, 16]: 2%
Fibrin % cell toxicity (primary rat microglia [4]; rat): 1%
Quadrant (FIG. 5b) [5]: Q4

CNCCCN1c2ccccc2CCc2ccccc21 [Desipramine hydrochloride, reference compound]
IC50 ([1]; Rattus norvegicus, Microglia, Table 7, read-out: fib_IC50): 1.62 µM
inhibition at 10 µM [1, 14]: -2%
LPS % cell toxicity (primary rat microglia [2]; rat): 4%
inhibition at 10 µM [3, 15]: 83%
IC50 ([3]; Rattus norvegicus, Microglia, Table 7; read-out: LPS_IC50): 0.002 µM
Fibrin % cell toxicity (primary rat microglia [4]; rat): 1%
Activity [5]: fib/LPS
Quadrant (FIG. 5b) ([5]; Table 2, screen at 10 μM): Q1
Quadrant (FIG. 5b) [5, 13]: Q1

CC(C)NNC(=O)c1ccncc1 [Iproniazid]
inhibition at 10 µM [1, 11]: -44%
LPS % cell toxicity (primary rat microglia [2]; rat): 0%
inhibition at 10 µM [3, 12]: 10%
Fibrin % cell toxicity (primary rat microglia [4]; rat): 1%
Quadrant (FIG. 5b) [5, 13]: Q4

CN(C)C(=N)N=C(N)N [Metformin]
inhibition at 10 µM ([1]; Rattus norvegicus, Microglia): -15%
LPS % cell toxicity (primary rat microglia [2]; rat): 0%
inhibition at 10 µM [3, 20]: 0%
Fibrin % cell toxicity (primary rat microglia [4]; rat): 0%
Quadrant (FIG. 5b) [5]: Q4

CC=CC(=O)N(CC)c1ccccc1C [Crotamiton]
Fibrin % inhibition ([1]; primary microglia HTS, fibrin stimulation, compounds at 10 μM): 12%
LPS % cell toxicity (primary rat microglia [2]): 0%
LPS % inhibition ([3]; primary microglia HTS, LPS stimulation, compounds at 10 μM): 3%
Fibrin % cell toxicity (primary rat microglia [4]): 0%
Quadrant (FIG. 5b) [5, 19]: Q4

Hydrocortisone hemisuccinate [reference compound]
Fibrin % inhibition [1]: 100%
fib specificity [1]: 8.4
fib_HS [1]: −0.39
IC50 ([1]; read-out: Fibrin IC50): 0.02 µM
IC50 [1, 6]: 0.02 µM
IC50 ([1]; read-out: fib_IC50): 0.004 µM
IC50 (primary rat microglia [2]): > 20000 nM
LPS % cell toxicity (primary rat microglia [2]): 1%
LPS % inhibition [3]: 64%
LPS specificity [3]: 0.1
LPS_HS [3]: −1.10
IC50 ([3]; read-out: LPS IC50): 7 µM
IC50 [3, 7]: 7 µM
IC50 ([3]; read-out: LPS_IC50): 0.036 µM
Fibrin % cell toxicity (primary rat microglia [4]): 1%
IC50 (primary rat microglia [4]): > 20000 nM
Activity [5]: fib/LPS
Cherry-picked Hit (Suppl. Table 7) [5]: HIT (key: HIT: Hits were defined as molecules that exhibited greater than 50% inhibition of either fibrin or LPS activation)
Hit [5]: HIT (key: HIT: Hits were defined as molecules that exhibited greater than 50% inhibition of either fibrin or LPS activation)
Quadrant (FIG. 5b) [5]: Q2

Cc1ccc(-c2nc3ccc(C)cn3c2CC(=O)N(C)C)cc1 [Zolpidem, Zolpidem Tartrate]
Fibrin % inhibition ([1]; 10 µM): −12%
LPS % cell toxicity (primary rat microglia [2]): 0%
LPS % inhibition ([3]; 10 µM): 4%
Fibrin % cell toxicity (primary rat microglia [4]): 0%
Quadrant (FIG. 5b) [5]: Q4

Oc1c(Cl)cc(Cl)cc1Sc1cc(Cl)cc(Cl)c1O [Bithionol]
inhibition at 10 µM ([1]; Rattus norvegicus, Microglia, primary HTS, 10 μM, fibrin-stimulated primary microglia): 11%
LPS % cell toxicity (primary rat microglia [2]; rat): 0%
inhibition at 10 µM ([3]; Rattus norvegicus, Microglia, primary HTS, 10 μM, LPS-stimulated primary microglia; read-out: LPS % inhibition): 14%
Fibrin % cell toxicity (primary rat microglia [4]; rat): 1%
Quadrant (FIG. 5b) ([5]; primary HTS, 10 μM): Q4

COc1cccc2c1C(=O)c1c(O)c3c(c(O)c1C2=O)C[C@@](O)(C(C)=O)C[C@@H]3O[C@H]1C[C@H](N)[C@H](O)[C@H](C)O1 [Daunorubicin]
inhibition at 10 µM [1, 14]: 116%
LPS % cell toxicity (primary rat microglia [2]; rat): 57%
inhibition at 10 µM [3, 15]: 114%
Fibrin % cell toxicity (primary rat microglia [4]; rat): 77%
Quadrant (FIG. 5b) [5, 13]: Q2

CC[C@H]1[C@@H]2C[C@H]3[C@@H]4N(C)c5ccccc5[C@]45C[C@@H]([C@H]2[C@H]5O)N3[C@@H]1O [Ajmaline]
inhibition at 10 µM [1, 17]: -6%
LPS % cell toxicity (primary rat microglia [2]; rat): 0%
inhibition at 10 µM [3, 18]: 13%
Fibrin % cell toxicity (primary rat microglia [4]; rat): 1%
Quadrant (FIG. 5b) ([5]; quadrant by fibrin and LPS inhibition, HTS at 10 μM): Q4

C[C@]12C=CC(=O)N[C@@H]1CC[C@@H]1[C@@H]2CC[C@]2(C)[C@@H](C(=O)Nc3cc(C(F)(F)F)ccc3C(F)(F)F)CC[C@@H]12 [Dutasteride]
inhibition at 10 µM ([1]; Rattus norvegicus, Microglia): 7%
LPS % cell toxicity (primary rat microglia [2]; rat): 0%
inhibition at 10 µM [3, 16]: 22%
Fibrin % cell toxicity (primary rat microglia [4]; rat): 1%
Quadrant (FIG. 5b) [5]: Q4

CCN(CC)C(=S)SSC(=S)N(CC)CC [Disulfiram]
inhibition at 10 µM [1, 14]: 114%
LPS % cell toxicity (primary rat microglia [2]; rat): 75%
inhibition at 10 µM [3, 15]: 131%
Fibrin % cell toxicity (primary rat microglia [4]; rat): 90%
Quadrant (FIG. 5b) [5, 13]: Q2

CN(C)CCCN1c2ccccc2Sc2ccc(Cl)cc21.Cl
Fibrin % inhibition ([1]; 10 µM): 9%
LPS % cell toxicity (primary rat microglia [2]): 1%
LPS % inhibition ([3]; 10 µM): 25%
Fibrin % cell toxicity (primary rat microglia [4]): 2%
Quadrant (FIG. 5b) [5]: Q4

CN1CCC[C@H]1c1cccnc1 [Nicotine]
inhibition at 10 µM ([1]; Rattus norvegicus, Microglia): 2%
LPS % cell toxicity (primary rat microglia [2]; rat): 1%
inhibition at 10 µM [3, 20]: 21%
Fibrin % cell toxicity (primary rat microglia [4]; rat): 1%
Quadrant (FIG. 5b) [5]: Q4

O=c1ccc2ccccc2o1 [2H-1-BENZOPYRAN-2-ONE]
Fibrin % inhibition ([1]; 10 µM): −35%
LPS % cell toxicity (primary rat microglia [2]): 0%
LPS % inhibition ([3]; 10 µM): 13%
Fibrin % cell toxicity (primary rat microglia [4]): 0%
Quadrant (FIG. 5b) [5]: Q4
